Measured values as given in ChEMBL document CHEMBL1201862, “PubChem BioAssay data set” (2004).
Activity calls are given as the source filed them. No rule for the calls is given here.

Legend:
[1] = molecular target: T1, High affinity choline transporter 1 (Homo sapiens, UniProt Q9GZV3); experiment: CHT inhibitors, dose response, cell-based, 5-point CRC, membrane potential dye (AID 504840); format: functional
T1 sequence (Q9GZV3 whole entry): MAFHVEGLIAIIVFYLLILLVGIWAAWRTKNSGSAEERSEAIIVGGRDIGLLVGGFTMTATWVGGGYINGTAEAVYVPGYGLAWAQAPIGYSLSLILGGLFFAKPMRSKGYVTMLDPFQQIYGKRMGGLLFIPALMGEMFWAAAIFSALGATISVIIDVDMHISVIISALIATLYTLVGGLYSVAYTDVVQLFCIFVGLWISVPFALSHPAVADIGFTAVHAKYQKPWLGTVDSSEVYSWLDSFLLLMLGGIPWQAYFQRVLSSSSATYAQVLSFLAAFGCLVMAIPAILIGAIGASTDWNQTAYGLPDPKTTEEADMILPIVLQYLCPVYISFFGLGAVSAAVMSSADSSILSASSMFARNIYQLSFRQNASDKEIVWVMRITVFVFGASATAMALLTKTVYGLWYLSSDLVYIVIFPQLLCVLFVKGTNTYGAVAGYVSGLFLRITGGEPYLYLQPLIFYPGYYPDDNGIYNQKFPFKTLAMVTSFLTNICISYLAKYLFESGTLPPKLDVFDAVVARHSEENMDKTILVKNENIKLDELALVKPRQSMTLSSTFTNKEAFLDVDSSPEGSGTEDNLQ

[2] = molecular target: T1, High affinity choline transporter 1; experiment: CHT inhibitors, dose response, cell-based, 10-point CRC, membrane potential dye (AID 588401); format: functional;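 also: membrane potential dye fluorescence of choline-evoked depolarization via CHT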

In the case of `CC(/C=C1\SC(=S)N(CC(=O)O)C1=O)=C\c1ccccc1`, the IC50 [1] is reported as 9.45 µM (active) and the IC50 [2] is reported as 6.48 µM (active).
